In paper PMC5045383 (Oncotarget, 2016):

How the values were obtained:
NB4 (FLT3-wt) = experiment: Cell proliferation assay (CellTiter-Glo); format: cell-based, human; details: 72 hours
Method: (§1) The human AML cell lines MV4-11, U937, OCI-AML-3 were purchased from the American Type Culture Collection (ATCC) (Manassas, VA, USA). The FLT3-ITD-expressing lines, MOLM-13, MOLM-14, were provided by Dr. Scott Armstrong, Dana Farber Cancer Institute (DFCI), Boston, MA. The wt FLT3-expressing AML line, NB4 (KRAS A18D), was obtained from Dr. Gary Gilliland. […] MV4-11 was cultured in IDMEM media (Corning, USA) with 10% FBS and supplemented with 2% L-glutamine and 1% penicillin/streptomycin. OCI-AML-3 was cultured in α-MEM media (Corning, USA) with 10% FBS and supplemented with 2% L-glutamine and 1% penicillin/streptomycin. All cell lines were maintained in culture media at 37°C with 5% CO2.
(§2) Cells were grown in 96-well culture plates (3000/well). […] Cell proliferation was determined after 72 hours drug treatment. […] Cell viability was measured with the CellTiter–Glo assay (Promega, USA), according to the manufacturer's instructions, and luminescence was measured in a multi-label reader (Envision, PerkinElmer, USA). […] GI50 values were calculated using Prism 5.0 (GraphPad Software, San Diego, CA).

MOLM-13 (FLT3-ITD/wt) = experiment: Cell proliferation assay (CellTiter-Glo); format: cell-based, human
Method: as §1, §2

U937 (FLT3-wt) = experiment: Cell proliferation assay (CellTiter-Glo); format: cell-based, human
Method: as §1, §2

MV4-11 (FLT3-ITD) = experiment: Cell proliferation assay (CellTiter-Glo); format: cell-based, human
Method: as §1, §2

MOLM-14 (FLT3-ITD/wt) = experiment: Cell proliferation assay (CellTiter-Glo); format: cell-based, human
Method: as §1, §2

OCI-AML-3 (FLT3-wt) = experiment: Cell proliferation assay (CellTiter-Glo); format: cell-based, human; details: 72 hours
Method: as §1, §2

MOLM14, MV4-11 cells = experiment: Apoptosis effect examination (PARP, Caspase-3 immunoblot); format: cell-based, human; details: at 1 μM, 24 hours
From the text: Cells were then washed in PBS and lysed in cell lysis buffer. PARP, Caspase-3, GAPDH antibodies (Cell signaling Technology) were used for immunoblotting.

[1] = test system: FLT3-ITD mediated signaling in MOLM14 and MV4-11 cell lines; experiment: Signaling pathway effect examination (immunoblot); format: cell-based, human; details: 1 μM, 4 hours
From the text: Cells were then washed in PBS and lysed in cell lysis buffer. FLT3, Phospho-FLT3 (Tyr589/591), AKT, Phospho-AKT Ser473, Phospho-AKT Thr308, GSK-3β, Phospho-GSK-3β (Ser9), Phospho-FoxO1 (Thr24), FoxO1, PRAS40, Phospho-PRAS40 (Thr246), STAT5, Phospho-STAT5 (Tyr694), NF-ΚB-P65, Phospho-NF-ΚB-P65 (Ser536), P70S6K, Phospho-P70S6K Thr389, 4EBP1, Phospho-4EBP1 (Thr37/46), ERK, Phospho-p44/42MAPK (Erk1/2) (Thr202/Tyr204), C-Myc and GAPDH antibodies (Cell Signaling Technology) were used for immunoblotting.

MV4-11 [2] = experiment: Cell cycle analysis (PI, flow cytometry); format: cell-based, human; details: MV4-11, 1 μM, 24 hours
Method: (§3) The cells were fixed in 70% cold ethanol and incubated at −20°C overnight, then stained with PI/RNase staining buffer (BD Pharmingen). Flow cytometry was performed using a FACS Calibur (BD), and results were analyzed by ModFit software.

MOLM14 = experiment: Cell cycle analysis (PI, flow cytometry); format: cell-based, human; details: MOLM14, 1 μM, 24 hours
Method: as §3

MV4-11 [3] = experiment: Combination study TCS359 + MK2206; format: cell-based, human; details: TCS359 0.12 μM, MK2206 0.12 μM, alone or combined, 72 hours
Method: (§4) The FLT3-ITD-expressing lines MOLM-13, MOLM14 and MV4-11 were grown in 96-well culture plates (3000/well), respectively. Combination treatment with the FLT3 kinase inhibitor, TCS359, and with the Akt inhibitor, MK2206, was performed. Cell proliferation was determined after treatment with compounds for 72 hours. Cell viability was measured using the CellTiter–Glo assay (Promega, USA), data were normalized to control groups (DMSO) and represented by the mean of three independent measurements with standard error < 20%. CI index was calculated by Calcusyn software (Biosoft, version 2.1), using the Chou-Talalay method.

MOLM-13 = experiment: Combination study TCS359 + MK2206; format: cell-based, human; details: TCS359 0.12 μM, MK2206 0.36 μM, alone or combined, 72 hours
Method: as §4

MOLM-14 = experiment: Combination study TCS359 + MK2206; format: cell-based, human; details: TCS359 3.3 μM, MK2206 0.12 μM, alone or combined, 72 hours
Method: as §4

PF-382 (FLT3-wt) = experiment: cells; format: cell-based; details: 72 hours
Method: as §2

SKM-1 (FLT3-wt) = experiment: Cell proliferation assay (CellTiter-Glo); format: cell-based, human; details: 72 hours
Method: as §2

HL-60 (FLT3-wt) = experiment: Cell proliferation assay (CellTiter-Glo); format: cell-based, human; details: 72 hours
Method: as §2

[4] = test system: FLT3-ITD/FLT3 wt-expressing MOLM13 and MOLM14 cells
Method: as §2

[5] = Homo sapiens, MOLM-13 (FLT3-ITD/wt), 72 hours, Table 1
[6] = Homo sapiens, MV4-11 (FLT3-ITD), 72 hours, Table 1
[7] = Homo sapiens, MOLM-14 (FLT3-ITD/wt), 72 hours, Table 1
[8] = Homo sapiens, read-out: Relative activity(%)
[9] = MOLM-13 (FLT3-ITD/wt), 72 hours, Table 1
[10] = MV4-11 (FLT3-ITD), 72 hours, Table 1

SMILES | GI50 (NB4 (FLT3-wt); Homo sapiens) [nM] | GI50 (MOLM-13 (FLT3-ITD/wt); [5]) [nM] | GI50 (U937 (FLT3-wt); Homo sapiens, U-937, 72 hours) [nM] | GI50 (MV4-11 (FLT3-ITD); [6]) [nM] | GI50 (MOLM-14 (FLT3-ITD/wt); [7]) [nM] | GI50 (OCI-AML-3 (FLT3-wt); Homo sapiens) [nM] | apoptosis induction (MOLM14, MV4-11 cells) | %G0–G1 (MV4-11 [2]) [%] | %G2–M (MV4-11 [2]) [%] | %S (MV4-11 [2]) [%] | %G0–G1 (MOLM14) [%] | %G2–M (MOLM14) [%] | %S (MOLM14) [%] | GI50 (PF-382 (FLT3-wt); Homo sapiens) [nM] | GI50 (SKM-1 (FLT3-wt); Homo sapiens) [nM] | GI50 (HL-60 (FLT3-wt); Homo sapiens) [nM] | GI50 (NB4 (FLT3-wt)) [nM] | GI50 (MOLM-13 (FLT3-ITD/wt); [9]) [nM] | GI50 (U937 (FLT3-wt); 72 hours) [nM] | GI50 (MV4-11 (FLT3-ITD); [10]) [nM] | further results
NC1(c2ccc(-c3nc4ccn5c(=O)[nH]nc5c4cc3-c3ccccc3)cc2)CCC1 [MK2206] | 210 | 100 | 7200 | 5200 | 320 | 1400 | did not induce apoptosis | 64.92 | 7.69 | 27.39 | 63.9 | 7.3 | 28.81 | 610 | 4600 | 160 | – | – | – | – | effect on FLT3 signaling pathway (pFLT3, pSTAT5, c-MYC) [1]: did not affect this signaling pathway; activity at 0.12 µM (MV4-11 [3]; [8]): 88.6%; activity at 0.36 µM (MOLM-13; [8]): 59.3%; activity at 0.12 µM (MOLM-14; [8]): 65.5%
CC(C)NC[C@@H](C(=O)N1CCN(c2ncnc3c2[C@H](C)C[C@H]3O)CC1)c1ccc(Cl)cc1 [GDC0068] | 5900 | 290 | 590 | 2100 | 850 | 1100 | – | – | – | – | – | – | – | 440 | > 10000 | 310 | – | – | – | – | –
CCn1c(-c2nonc2N)nc2c(C#CC(C)(C)O)ncc(OC[C@H]3CCCNC3)c21 [GSK690693] | 220 | 280 | 5100 | 5200 | 540 | > 10000 | – | 60.48 | 7 | 32.52 | 54.52 | 9.78 | 35.7 | 240 | > 10000 | 160 | – | – | – | – | –
NC1(Cc2ccc(Cl)cc2)CCN(c2ncnc3[nH]ccc23)CC1 [CCT128930] | – | – | – | – | – | – | – | – | – | – | – | – | – | – | – | – | 2500 | 650 | 4100 | 1000 | GI50 (MOLM-14 (FLT3-ITD/wt); MOLM-14 (FLT3-ITD/wt), 72 hours, Table 1): 1100 nM; GI50 (OCI-AML-3 (FLT3-wt)): 2200 nM; GI50 (PF-382 (FLT3-wt)): 1300 nM; GI50 (SKM-1 (FLT3-wt)): 4300 nM; GI50 (HL-60 (FLT3-wt)): 1500 nM
NC1(C(=O)N[C@@H](CCO)c2ccc(Cl)cc2)CCN(c2ncnc3[nH]ccc23)CC1 [AZD5363] | 930 | 160 | 610 | 670 | 500 | 1200 | – | – | – | – | – | – | – | 480 | > 10000 | 370 | – | – | – | – | –
COc1ccc(C(=O)Nc2sc3c(c2C(N)=O)CCCC3)cc1OC [TCS359] | – | – | – | – | – | – | did not induce apoptosis | 73.62 | 2.57 | 23.81 | 55.04 | 9.08 | 35.88 | – | – | – | > 10000 | 560 | > 10000 | 680 | fold loss of activity with FLT3 ligand stimulation [4]: 6-15 fold; GI50 (MOLM-13 (FLT3-ITD/wt); MOLM-13+FL(1 ng/mL)): > 10000 nM; GI50 (MOLM-13 (FLT3-ITD/wt); MOLM-13+FL(5 ng/mL)): > 10000 nM; GI50 (MOLM-13 (FLT3-ITD/wt); MOLM-13+FL(10 ng/mL)): > 10000 nM; GI50 (MOLM-13 (FLT3-ITD/wt); MOLM-13, no FLT3 ligand, Table 3): 420 nM; GI50 (MV4-11 (FLT3-ITD); MV4-11+FL(10 ng/mL)): 1400 nM; GI50 (MV4-11 (FLT3-ITD); MV4-11, no FLT3 ligand, Table 3): 490 nM; GI50 (MOLM-14 (FLT3-ITD/wt); MOLM-14+FL(1 ng/mL)): > 10000 nM; GI50 (MOLM-14 (FLT3-ITD/wt); MOLM-14+FL(5 ng/mL)): > 10000 nM; GI50 (MOLM-14 (FLT3-ITD/wt); MOLM-14+FL(10 ng/mL)): > 10000 nM; GI50 (OCI-AML-3 (FLT3-wt)): > 10000 nM; Relative activity(%) (MV4-11 [3]): 98.9%; Relative activity(%) (MOLM-13): 69.7%; Relative activity(%) (MOLM-14): 68.4%; GI50 (PF-382 (FLT3-wt)): > 10000 nM; GI50 (SKM-1 (FLT3-wt)): > 10000 nM; GI50 (HL-60 (FLT3-wt)): 540 nM
